14 compounds from the NIST ThermoML archive (doi:10.1021/je800817b) can be followed below.

This data set can be described thus: xn = mol fraction of the nth substance listed. The conditions noted are these: 101 kPa, Liquid, x1 = 0.

Regarding `CCCCCCCCn1cc[n+](C)c1.O=S(=O)([N-]S(=O)(=O)C(F)(F)F)C(F)(F)F` + CC#N, the binary diffusion coefficient by setting is: (283 K) 1.62e-09 m2/s; (298 K) 2e-09 m2/s; (313 K) 2.31e-09 m2/s; (323 K) 2.57e-09 m2/s; (333 K) 2.86e-09 m2/s.

For `CCCCCC[n+]1ccn(C)c1.O=S(=O)([N-]S(=O)(=O)C(F)(F)F)C(F)(F)F` + CC#N, the binary diffusion coefficient came to 1.67e-09 m2/s (283 K); 2.1e-09 m2/s (298 K); 2.51e-09 m2/s (313 K); 2.74e-09 m2/s (323 K); 2.99e-09 m2/s (333 K).

For the compound `CCCC[n+]1ccn(C)c1.O=S(=O)([N-]S(=O)(=O)C(F)(F)F)C(F)(F)F` + CC#N, the binary diffusion coefficient (283 K) was determined as 1.7e-09 m2/s; the binary diffusion coefficient (298 K) turned out to be 2.22e-09 m2/s; the binary diffusion coefficient (313 K) came to 2.7e-09 m2/s; the binary diffusion coefficient (323 K) came to 3.07e-09 m2/s; the binary diffusion coefficient (333 K) was 3.45e-09 m2/s.

Regarding `CCn1cc[n+](C)c1.O=S(=O)([N-]S(=O)(=O)C(F)(F)F)C(F)(F)F` + CC#N, the binary diffusion coefficient is, setting by setting: (283 K) 1.79e-09 m2/s; (298 K) 2.29e-09 m2/s; (313 K) 2.78e-09 m2/s; (323 K) 3.15e-09 m2/s; (333 K) 3.48e-09 m2/s.

As for `CCCCCCCCn1cc[n+](C)c1.O=S(=O)([N-]S(=O)(=O)C(F)(F)F)C(F)(F)F` + CO, the binary diffusion coefficient is, setting by setting: (283 K) 9.9e-10 m2/s; (298 K) 1.32e-09 m2/s; (313 K) 1.59e-09 m2/s; (323 K) 1.83e-09 m2/s; (333 K) 2.12e-09 m2/s.

Turning to `CCCCCC[n+]1ccn(C)c1.O=S(=O)([N-]S(=O)(=O)C(F)(F)F)C(F)(F)F` + CO, the binary diffusion coefficient runs as follows: (283 K) 1.05e-09 m2/s; (298 K) 1.34e-09 m2/s; (313 K) 1.64e-09 m2/s; (323 K) 1.99e-09 m2/s; (333 K) 2.21e-09 m2/s.

Turning to `CCCC[n+]1ccn(C)c1.O=S(=O)([N-]S(=O)(=O)C(F)(F)F)C(F)(F)F` + CO, the binary diffusion coefficient was determined as 1.11e-09 m2/s (283 K); 1.48e-09 m2/s (298 K); 1.88e-09 m2/s (313 K); 2.15e-09 m2/s (323 K); 2.43e-09 m2/s (333 K).

For `CCn1cc[n+](C)c1.O=S(=O)([N-]S(=O)(=O)C(F)(F)F)C(F)(F)F` + CO, the binary diffusion coefficient was 1.17e-09 m2/s (283 K); 1.6e-09 m2/s (298 K); 2.03e-09 m2/s (313 K); 2.3e-09 m2/s (323 K); 2.69e-09 m2/s (333 K).

Consider `CCCCCCCCn1cc[n+](C)c1.O=S(=O)([N-]S(=O)(=O)C(F)(F)F)C(F)(F)F` + O, for which the binary diffusion coefficient runs as follows: (283 K) 5.7e-10 m2/s; (298 K) 8.1e-10 m2/s; (303 K) 8.7e-10 m2/s; (313 K) 1.05e-09 m2/s; (323 K) 1.31e-09 m2/s; (333 K) 1.47e-09 m2/s.

In the case of `CCCCCC[n+]1ccn(C)c1.O=S(=O)([N-]S(=O)(=O)C(F)(F)F)C(F)(F)F` + O, the binary diffusion coefficient is 5.8e-10 m2/s (283 K); 8.3e-10 m2/s (298 K); 9e-10 m2/s (303 K); 1.15e-09 m2/s (313 K); 1.39e-09 m2/s (323 K); 1.63e-09 m2/s (333 K).

Regarding `CCCC[n+]1ccn(C)c1.O=S(=O)([N-]S(=O)(=O)C(F)(F)F)C(F)(F)F` + O, the binary diffusion coefficient reads like this: (283 K) 6e-10 m2/s; (298 K) 8.5e-10 m2/s; (303 K) 9.6e-10 m2/s; (313 K) 1.16e-09 m2/s; (323 K) 1.47e-09 m2/s; (333 K) 1.74e-09 m2/s.

On to `CCn1cc[n+](C)c1.O=S(=O)([N-]S(=O)(=O)C(F)(F)F)C(F)(F)F` + O, for which the binary diffusion coefficient runs as follows: (283 K) 6.1e-10 m2/s; (298 K) 8.9e-10 m2/s; (303 K) 9.8e-10 m2/s; (313 K) 1.27e-09 m2/s; (323 K) 1.55e-09 m2/s; (333 K) 1.85e-09 m2/s.

As for `CCCCn1cc[n+](C)c1.[Cl-]` [1-butyl-3-methylimidazolium chloride] + O, the binary diffusion coefficient is 8.3e-10 m2/s (283 K); 1.18e-09 m2/s (298 K); 1.32e-09 m2/s (303 K); 1.66e-09 m2/s (313 K); 2.01e-09 m2/s (323 K); 2.4e-09 m2/s (333 K).

As to `CCCCn1cc[n+](C)c1.F[B-](F)(F)F` [1-butyl-3-methylimidazolium tetrafluoroborate] + O, the binary diffusion coefficient worked out at 7.7e-10 m2/s (283 K); 1.14e-09 m2/s (298 K); 1.28e-09 m2/s (303 K); 1.55e-09 m2/s (313 K); 1.97e-09 m2/s (323 K); 2.26e-09 m2/s (333 K).
